We go through three compounds from patent publication US20240261296A1, “THERAPEUTIC MODALITIES FOR INHIBITING PANCREATIC BETA CELL IMPAIRMENT AND TREATING DIABETES” (Hadasit Medical Research Serices & Development Ltd., priority 2021, published 2024).

In assay [1] the test system is MIN6 cells. Nature of the assay: rescue of MIN6 cells from palmitate-induced apoptosis (cleaved caspase 3 western blot; FACS SubG1). The assay is classed as cell-based, murine. The following applies: palmitic acid 0.3 mM, 48 hours; compared to L-798106. On the procedure:
(§1) Islet and cell culture: The pancreatic β-cell line MIN6, which is a clonal murine insulin-secreting line, was cultured in DMEM (Biological Industries, Beit Haemek, Israel) supplemented with 11 mM Glucose, 2 mM glutamine, 15% heat-inactivated fetal calf serum (FCS), 100 U/ml penicillin, 100 µg/ml streptomycin and 61 μM β-mercaptoethanol. Human islets were obtained from the European Consortium for Islet Transplantation (ECIT) at the San Raffaele Hospital and from the Niguarda Hospital, (Milan, Italy) and cultured in CMRL-1066 media (Biological Industries, Beit HaEmek, Israel) supplemented with 10% FCS, 5.5 mM glucose, 2 mM L-Glutamine, 100 U/ml penicillin, 100 μg/ml streptomycin and 150 μg/ml gentamycin. Palmitate was added to 1% FCS and 0.5% defatted BSA (Roche, Germany).
Western blotting: Cells were lyzed in Laemmli protein sample buffer, separated on SDS-polyacrylamide gel, and transferred to […] nitrocellulose membranes (Schleicher and Schuell, Dassel, Germany). After blocking in 5% dried skimmed milk, the membranes were first incubated with the appropriate antibodies against: cleaved caspase-3 (Asp175) (Cell Signaling Technology Danvers, MA) and α-tubulin (Sigma-Aldrich.) and then with horseradish peroxidase conjugated anti-rabbit or anti-mouse IgG, followed by analysis with an enhanced chemiluminescence detection kit (Biological Industries, Israel).
The remaining compounds were screened for the ability to rescue β-cells from palmitate-induced apoptosis as compared to the commercial EP3 antagonist L-798106 by measuring the levels of the cleaved caspase 3 apoptotic marker, using Western Blot analysis (FIG. 1). […] Cell extracts were analyzed by western blotting for the presence of cleaved caspase 3 as compared to α-Tubulin.
The ability of the compounds to rescue β-cells from apoptosis was also evaluated using FACS analysis and measuring the SubG1 population (FIG. 2). […] Collected cells were analyzed by FACS and the SubG1 fractions (representing apoptotic cell products or components were compared. The average of 4-6 independent experiments is presented in FIG. 2.
(In western blotting, separated proteins are transferred to a membrane and probed.)

Assay [2] deals with human islet cells. The assay can be described thus: Caspase-Glo 3/7 assay in palmitic acid-treated human islets. The assay is classed as cell-based. The arrangement: rescuing human islet cells from apoptosis, compared with L-798106 / inhibiting or reversing palmitate-induced apoptosis in pancreatic islets of both human donors / inhibition of palmitate-induced apoptosis in human islets, donor 1: dose or concentration left out as unconfirmed. The following applies: for rescuing human islet cells from apoptosis, compared with L-798106: two human donors. On the procedure:
as §1
(§2) Next, the ability of the compounds to rescue human islet cells from palmitate-induced apoptosis was determined. To this end, the Caspase-Glo 3/7 assay reagent (Promega) was used for caspase 3/7 detection in palmitic acid-treated cells. The reagent provides a proluminescent caspase-3/7 substrate, which contains the tetrapeptide sequence DEVD, in combination with luciferase and a cell-lysing agent. The addition of the reagent directly to the wells results in cell lysis, followed by caspase cleavage of the DEVD substrate, and the generation of luminescence.
Accordingly, human islets from two donors were exposed to the various compounds or to L-798106 for 48 h in the presence of palmitic acid, and the bioluminescence was measured as compared to control cells. FIGS. 3A-3B show the results of the treatment with […] of the compounds in two human donors (FIG. 3A—donor 1, FIG. 3B—donor 2). PA: Palmitate; L: L-798106; RLU: Relative Light Units. The results are average of triplicates or quadruplicates ±SEM (except in islets from L-798106 treated donor 2, representing duplicates).
Next, various concentrations of the compounds were tested in human pancreatic islet cells. Cells obtained from the first healthy donor (donor 1) were incubated in the presence or absence of PA with C13, C5 or L-798106 (L) at concentrations of 5, 2.5 and 0.5 μM. Caspase 3/7 enzymatic activity was measured as described above. The enzymatic activity is presented in FIG. 5A for 5 μM, FIG. 5B for 2.5 μM and FIG. 5C for 0.5 μM as relative light units (RLU/μg protein) and the graphs represent the average of n=3-4.

Assay [3] relates to INS1 and INS2 genes. The assay can be described thus: insulin gene expression in palmitate-treated MIN6 cells (real-time PCR). The following applies: 10 μM, in the presence of palmitate. In kind it is cell-based, murine. On the procedure: Real-time PCR: Total RNA from MIN6 cells or islets was extracted using TRIzol (Invitrogen, Carlsbad, CA, USA) and 2 μg of total RNA was converted to cDNA using SuperScript® III Reverse Transcriptase (Invitrogen, Carlsbad, CA, USA). 2.5-5 ng cDNA was used for each real-time PCR reaction. Real-time reaction was performed using Platinum SYBR Green qPCR SuperMix-UDG with ROX reference dye (Applied Biosystems). The primers used were as follows: GAPDH forward (F): […]; GAPDH reverse (R): […]; Ins1 (F): AACCCCCAGCCCTTAGTGA; (R): […]; Ins2 (F): […]; (R): […] (SEQ ID Nos: 1-6, respectively). Additional primers used as controls are directed to HPRT, as follows: HPRT (F): […] HPRT (R) […] (SEQ ID Nos: 7-8, respectively).
PA decreases the expression of β-cell specific genes, including insulin. The effect of the selected compounds on insulin gene expression was further tested in MIN6 cells. Rodent β-cells have two insulin genes (INS1 and INS2). MIN6 cells were exposed to C5 or L-798106 (10 μM) in the presence or absence of palmitic acid, and mRNAs insulin levels were measured by real-time PCR. FIGS. 6A-6B present the expression levels of INS1 and INS2 genes, respectively, normalized to GAPDH expression levels. Data of n=3±SEM is presented.
For orientation: In qPCR the cycle at which signal appears reflects the starting amount.

For assay [4], the system named is MIN6 cells. Nature of the assay: Caspase 3/7 enzymatic activity in palmitic acid-treated MIN6 cells. The assay is classed as cell-based, murine. The following applies: 250 nM, 24 h. The protocol: as §2
Following the initial screening results, compounds C13 and C5 were tested at different doses for their ability to reduce palmitate-induced apoptosis. To this end, MIN6 cells were exposed to 250 nM of the tested compounds in the presence of palmitic acid (PA) for 24 h, or to PA alone. Caspase 3/7 enzymatic activity was measured as described in Example 3, and the results, presented in FIG. 4 represent the average ±SEM of triplicates or quadruplicates.

As for `CC[C@H](C)c1ccc(S(=O)(=O)Nc2ccccc2C(=O)N2C[C@@H](C)O[C@@H](C)C2)cc1` [Compound C5, 4-((S)-sec-butyl)-N-(2-((2S,6R)-2,6-dimethylmorpholine-4-carbonyl)phenyl)benzenesulfonamide], the “rescue of β-cells from palmitate-induced apoptosis (cleaved caspase 3; SubG1 population)” value in assay [1] is reported as “exceptionally high efficacy”. The “inhibition of palmitate-induced apoptosis in human islets, compared with L-798106” value in assay [2] (donor 1, 5, 2.5 and 0.5 μM) is reported as “to a greater extent than L-798106”. For the same compound, in assay [2] (palmitic acid, 48 h), the “rescuing human islet cells from apoptosis, compared with L-798106” value is “to a greater extent than the EP3 antagonist L-798106”. In assay [3], the “effect on insulin gene expression relative to L-798106” value is given as “appeared to be more significant” and the “insulin gene expression (INS1, INS2) normalized to GAPDH” value was “enhanced insulin gene expression”. In assay [4], the “palmitate-induced apoptosis (caspase 3/7 activity)” value is on record as “significantly reduced”.
For the compound `CC[C@@H]1CC[C@H](C)N1C(=O)c1cccc(NS(=O)(=O)c2ccc(C)c(F)c2)c1` [Compound C13, N-(3-((2R,5S)-2-ethyl-5-methylpyrrolidine-1-carbonyl)phenyl)-3-fluoro-4-methylbenzenesulfonamide], in assay [1], the “rescue of β-cells from palmitate-induced apoptosis (cleaved caspase 3; SubG1 population)” value is “exceptionally high efficacy”. In addition, in assay [2] (donor 1, 5, 2.5 and 0.5 μM), the “efficacy at all tested concentrations” value is “remarkable efficacy” and the “inhibition of palmitate-induced apoptosis in human islets, compared with L-798106” value was “to a greater extent than L-798106”. Further, in assay [2] (palmitic acid, 48 h), the “inhibiting or reversing palmitate-induced apoptosis in pancreatic islets of both human donors” value is listed as “particularly high efficacy” and the “rescuing human islet cells from apoptosis, compared with L-798106” value was “to a greater extent than the EP3 antagonist L-798106”. In addition, the “palmitate-induced apoptosis (caspase 3/7 activity)” value in assay [4] is “significantly reduced”.
As for `COc1ccc(Br)cc1S(=O)(=O)NC(=O)/C=C/c1ccccc1Cc1ccc2ccccc2c1` [Compound L-798106, (2E)-N-[(5-bromo-2-methoxyphenyl)sulfonyl]-3-[2-(2-naphthalenylmethyl)phenyl]-2-propenamide, reference compound], the “insulin gene expression (INS1, INS2) normalized to GAPDH” value in assay [3] is reported as “enhanced insulin gene expression”.
